By pKa is commonly meant the pH at which an ionisable group is half protonated. Broadly, the Ki is a dissociation constant, usually derived from enzyme kinetics or from competition with a known ligand.

Results on one compound are retold here after paper PMC10076467 (EJNMMI Research, 2023).

For data set [1] the following is noted: cited from earlier work.
In data set [2] the target is T1, GluN2B receptors (Rattus norvegicus, UniProt P35439+Q00960).
T1 construct: from tissue; host or cells: brain of living male rats (PET imaging)
Further details: method as in PMID 31924728. To be noted: pre-blocking, radioligand ^11C-(S)-NR2B-SMe; cited from earlier work.

In data set [3] the target is T2, GluN2B (Homo sapiens, UniProt Q05586+Q13224).
T2 construct: expressed in transfected cells; host or cells: transiently transfected mouse fibroblast cells (membrane homogenate)
Set-up: method as in PMID 31924728. The note with it: cited from earlier work.

In data set [4] the test system is σ2 receptor. The note with it: at 10 µmol; cited from earlier work.
For data set [5], the target named is T3, σ1 receptors (Rattus norvegicus, UniProt Q9R0C9).
T3 construct: from tissue; host or cells: brain of living male rats (PET imaging)
Briefly: ED50 for pre-blocking of ^18F-FTC146 uptake in rat whole brain (PET). The note with it: radioligand ^18F-FTC146, AUC 20-120 min. The format is in vivo. On the procedure:
For radioligand injection, a polyethylene catheter (PE 10) was inserted into the penile vein of a male rat and then secured with tissue adhesive and tape. For dynamic scanning, the rats were secured with tape in the scanner and kept under 1.5% isoflurane anesthesia via a nose cone. Body temperature was monitored with a rectal probe. All PET scans were performed on a microPET Focus 220 scanner (Siemens Medical Solutions) (7,8). Data were acquired in listmode and reconstructed with Fourier rebinning + 2D filtered backprojection. A transmission scan was acquired before radioligand injection for attenuation correction. Dynamic scanning began at the time of a one-minute intravenous bolus injection of the radioligand under study (55 ± 19 MBq; volume 0.2 to 1.0 mL). The injected mass dose was 3 ± 1 nmol/kg. Challenge agents were administered intravenously 10 minutes before the radioligand for pre-blocking studies or 10 minutes after the radioligand for displacement studies. Tomographic images were analyzed with pixel-wise modeling computer software (PMOD 2.6; PMOD Group). Regions-of-interest in the brain were delineated, and time-activity curves calculated as SUV versus time.
Pre-blocking and displacement experiments were performed to assess radioligand target engagement and radioligand selectivity in vivo. Normally 4 doses of 0.01 mg/kg, 0.05 mg/kg, 0.25 mg/kg, and 1.25 mg/kg were used for preblocking experiments, and only 2 doses of 0.25 mg/kg and 1.25 mg/kg were used for displacement experiments. […] […] […] […] Where data permitted, the dose-response curves were fitted with GraphPad Prism software (version 8.1.1; GraphPad) to estimate the ED50 values. A dummy value of 100 pmol per kg body weight was used for zero concentration of the challenge agent in the construction of these dose-response curves. Numerical data are expressed as mean ± S.D. for n>2, or as mean and range for n = 2.

The conditions of data set [6]: cited from earlier work. The source holds these as a separate data set.

T1 sequence (Q00960 27-1482, other chains not shown): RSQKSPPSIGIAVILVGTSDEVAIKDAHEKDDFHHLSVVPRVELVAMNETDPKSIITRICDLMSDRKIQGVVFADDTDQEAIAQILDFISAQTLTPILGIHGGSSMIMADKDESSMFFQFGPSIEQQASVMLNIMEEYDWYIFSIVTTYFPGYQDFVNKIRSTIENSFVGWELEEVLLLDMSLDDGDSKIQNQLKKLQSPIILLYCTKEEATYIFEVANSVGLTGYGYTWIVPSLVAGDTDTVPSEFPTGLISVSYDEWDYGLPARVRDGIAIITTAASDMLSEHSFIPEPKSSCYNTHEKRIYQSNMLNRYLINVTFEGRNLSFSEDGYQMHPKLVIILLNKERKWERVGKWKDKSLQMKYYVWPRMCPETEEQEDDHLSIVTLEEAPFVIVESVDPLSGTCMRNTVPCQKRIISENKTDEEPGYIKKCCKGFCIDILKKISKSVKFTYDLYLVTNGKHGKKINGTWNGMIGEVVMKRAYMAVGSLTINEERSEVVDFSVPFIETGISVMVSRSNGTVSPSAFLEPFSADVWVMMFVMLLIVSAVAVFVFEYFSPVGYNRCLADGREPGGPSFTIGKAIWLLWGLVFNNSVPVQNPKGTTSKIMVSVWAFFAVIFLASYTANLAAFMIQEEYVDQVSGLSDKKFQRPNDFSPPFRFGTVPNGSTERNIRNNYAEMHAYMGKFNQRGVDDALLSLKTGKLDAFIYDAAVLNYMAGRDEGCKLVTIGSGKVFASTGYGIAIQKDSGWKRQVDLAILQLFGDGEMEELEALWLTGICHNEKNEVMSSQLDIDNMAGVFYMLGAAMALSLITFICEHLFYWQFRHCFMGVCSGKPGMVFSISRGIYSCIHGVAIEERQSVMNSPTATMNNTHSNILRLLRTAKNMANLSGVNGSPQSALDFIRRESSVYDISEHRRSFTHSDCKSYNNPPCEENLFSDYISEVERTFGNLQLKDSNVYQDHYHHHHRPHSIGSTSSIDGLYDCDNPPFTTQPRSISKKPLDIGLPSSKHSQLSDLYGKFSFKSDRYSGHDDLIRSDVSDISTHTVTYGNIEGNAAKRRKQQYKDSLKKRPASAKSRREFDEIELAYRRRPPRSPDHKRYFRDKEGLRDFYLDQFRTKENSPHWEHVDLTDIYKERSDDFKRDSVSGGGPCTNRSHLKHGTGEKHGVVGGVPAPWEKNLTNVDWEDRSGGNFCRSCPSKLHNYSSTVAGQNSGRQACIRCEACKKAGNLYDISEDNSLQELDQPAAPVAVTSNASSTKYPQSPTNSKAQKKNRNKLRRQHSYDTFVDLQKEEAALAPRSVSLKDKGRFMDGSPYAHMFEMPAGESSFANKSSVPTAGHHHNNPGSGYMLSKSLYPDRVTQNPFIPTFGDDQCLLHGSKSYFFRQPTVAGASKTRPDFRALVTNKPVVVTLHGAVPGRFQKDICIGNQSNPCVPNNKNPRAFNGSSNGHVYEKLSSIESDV
T3 sequence (Q9R0C9 whole entry): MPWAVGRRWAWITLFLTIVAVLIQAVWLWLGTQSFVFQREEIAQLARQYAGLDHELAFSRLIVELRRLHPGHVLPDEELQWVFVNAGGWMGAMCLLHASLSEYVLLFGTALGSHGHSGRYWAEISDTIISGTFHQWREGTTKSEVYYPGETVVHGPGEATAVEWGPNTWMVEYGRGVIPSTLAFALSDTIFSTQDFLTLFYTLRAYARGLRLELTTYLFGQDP
T2 sequence (Q13224 27-1484, species assumed, other chains not shown): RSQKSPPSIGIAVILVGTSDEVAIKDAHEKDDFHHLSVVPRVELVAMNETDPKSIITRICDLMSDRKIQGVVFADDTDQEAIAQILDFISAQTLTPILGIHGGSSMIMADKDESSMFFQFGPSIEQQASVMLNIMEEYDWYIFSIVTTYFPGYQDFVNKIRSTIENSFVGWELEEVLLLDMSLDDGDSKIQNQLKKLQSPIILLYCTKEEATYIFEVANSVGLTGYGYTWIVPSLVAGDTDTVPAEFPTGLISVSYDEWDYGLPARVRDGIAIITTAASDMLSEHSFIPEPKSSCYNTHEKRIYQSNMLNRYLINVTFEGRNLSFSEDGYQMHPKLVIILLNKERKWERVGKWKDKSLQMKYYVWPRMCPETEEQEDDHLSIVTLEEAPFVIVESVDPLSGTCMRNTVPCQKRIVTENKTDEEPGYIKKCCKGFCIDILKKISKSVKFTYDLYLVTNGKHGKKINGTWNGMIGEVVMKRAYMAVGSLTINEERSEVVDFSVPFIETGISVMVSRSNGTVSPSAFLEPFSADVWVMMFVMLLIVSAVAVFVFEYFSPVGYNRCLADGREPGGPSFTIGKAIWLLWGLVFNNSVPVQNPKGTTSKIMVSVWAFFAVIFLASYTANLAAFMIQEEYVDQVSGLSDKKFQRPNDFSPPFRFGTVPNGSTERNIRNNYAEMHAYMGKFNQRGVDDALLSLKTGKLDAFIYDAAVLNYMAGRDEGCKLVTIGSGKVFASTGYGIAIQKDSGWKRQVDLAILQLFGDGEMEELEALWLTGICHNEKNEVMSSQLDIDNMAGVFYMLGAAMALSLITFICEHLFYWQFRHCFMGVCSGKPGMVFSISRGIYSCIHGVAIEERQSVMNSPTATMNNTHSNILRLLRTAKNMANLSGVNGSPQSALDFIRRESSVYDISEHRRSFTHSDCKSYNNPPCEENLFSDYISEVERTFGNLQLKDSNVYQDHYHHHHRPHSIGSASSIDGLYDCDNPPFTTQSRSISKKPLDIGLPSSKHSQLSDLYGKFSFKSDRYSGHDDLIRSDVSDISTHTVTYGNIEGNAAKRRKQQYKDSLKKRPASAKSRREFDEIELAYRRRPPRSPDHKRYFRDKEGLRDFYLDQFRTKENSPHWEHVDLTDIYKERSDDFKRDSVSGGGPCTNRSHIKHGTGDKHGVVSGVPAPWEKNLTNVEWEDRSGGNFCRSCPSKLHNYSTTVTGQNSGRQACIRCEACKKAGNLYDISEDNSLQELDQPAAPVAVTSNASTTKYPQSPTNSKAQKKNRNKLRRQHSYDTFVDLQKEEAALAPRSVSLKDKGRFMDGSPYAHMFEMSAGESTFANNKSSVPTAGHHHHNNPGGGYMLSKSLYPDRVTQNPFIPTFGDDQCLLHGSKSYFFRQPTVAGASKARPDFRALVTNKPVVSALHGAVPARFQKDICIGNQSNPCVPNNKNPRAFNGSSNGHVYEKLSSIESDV

Consider `CSc1ccc2c(c1)CCN(CCCCc1ccc(C)cc1)CC2O` (racemic) [NR2B-SMe, (R,S)-7-thiomethoxy-3-(4-(4-methyl-phenyl)butyl)-2,3,4,5-tetrahydro-1H-benzo[d]azepin-1-ol], for which, in data set [1], the pKa was 5.03. Also, in data set [2], the “ED50 in rat whole brain in vivo ^11C-(S)-NR2B-SMe” value is on record as 9.5 nmol/kg. Moreover, the Ki in data set [3] was 2.2 nM. The σ2 inhibition in data set [4] is on record as 90%. Moreover, the “ED50 in rat whole brain in vivo ^18F-FTC146” value in data set [5] is recorded as 1064 nmol/kg. For the same compound, the cLogD7.4 in data set [6] is on record as 3.41.
